Source: patent US9995731B2, “Construction of mitochondrial UQCRB mutant expressing cells and utilization of the cells for UQCRB assay system thereof” (INDUSTRY-ACADEMIC COOPERATION FOUNDATION, YONSEI UNIVERSITY, priority 2014, dated 2018)

Key:
Format in all cases: cell-based, human
UQCRB MT1 cells = assay: Measurement of mROS levels with MitoSOX in UQCRB MT1 cells; settings: terpestacin 20 μM for 1 h
Description: (§1) FIG. 4A-4F Pro-angiogenic activity of UQCRB mutant stable cell lines and its regulation by UQCRB inhibitors. (4A) Pro-angiogenic activity of a UQCRB mutant through conditioned media (CM)-induced invasion of HUVECs. (4B) Effect of a UQCRB mutation on cell migration; black lines indicate the edge of the gap. (4C) Optical density levels of the colony formation assay by using UQCRB mutant stable cell lines or controls. (4D, 4E) Growth of the UQCRB mutant stable cell lines regulated by the UQCRB inhibitors terpestacin (T) and A1938 (A). Cells were treated with terpestacin (50 μM) or A1938 (10 μM) in a time-dependent manner. Cell growth was measured by the MTT colorimetric assay. (4F) Suppression of elevated mROS by terpestacin in UQCRB MT1 cells. mROS were measured using MitoSOX™. […]
mROS levels were assessed by the red fluorescence mitochondrial superoxide indicator MitoSOX™ (Invitrogen, Grand Island, N.Y.). […] Results of MitoSOX™ and Hoechst staining were analyzed under a confocal microscope (Zeiss LSM 710; Carl Zeiss Microlmaging, Thornwood, N.Y.), and the fluorescence intensity of MitoSOX™ was measured by ImageJ.
(§2) Since UQCRB is a molecular target of the natural compound terpestacin [6], we examined the effect of terpestacin on UQCRB mutant stable cell lines. To test whether terpestacin affects MT1 and MT2, cell growth was measured with or without terpestacin for 3 days. […]

[1] = test system: UQCRB mutant stable cell line MT1; assay: Cell proliferation assay (MTT colorimetric), UQCRB mutant stable cell line MT1; settings: MT1 cells, terpestacin 50 μM, with or without terpestacin for 3 days
Description: as §1, with “MitoSOX™. Terpestacin (20 μM) was applied to UQCRB MT1 cells for 1 h; scale bars indicate 20 μm.” for “MitoSOX™.”
(§3) Control and mutant stable cell lines were seeded onto 96-well plates and incubated for 24-72 h. Proliferation of the cells was measured using a 3-(4,5-dimethylthiazol-2-yl)-2,5-diphenyltetrazolium bromide (MTT; Sigma-Aldrich, Saint Louis, Mo.) colorimetric assay.
as §2

Control (HEK293) cells = assay: Cell proliferation assay (MTT colorimetric), control cells; settings: terpestacin 50 μM, 3 days
Description: as §1, with “MitoSOX™. Terpestacin (20 μM) was applied to UQCRB MT1 cells for 1 h; scale bars indicate 20 μm.” for “MitoSOX™.”
as §3, §2

[2] = test system: UQCRB mutant stable cell line MT2; assay: Cell proliferation assay (MTT colorimetric), UQCRB mutant stable cell line MT2; settings: MT2 cells, terpestacin 50 μM, with or without terpestacin for 3 days
Description: as §1, with “MitoSOX™. Terpestacin (20 μM) was applied to UQCRB MT1 cells for 1 h; scale bars indicate 20 μm.” for “MitoSOX™.”
as §3, §2

Question: How did the “effect on elevated mROS (MitoSOX fluorescence)” value (UQCRB MT1 cells) turn out when `C/C1=C\C[C@]2(C)C(=O)C(O)=C([C@H](C)CO)[C@H]2C/C=C(\C)[C@@H](O)CC/C(C)=C/CC1` [terpestacin] was run?
Answer: attenuated mROS induction in MT1 to a basal level

Question: What about the “effect on proliferation (cell growth, MTT)” value (“effect on proliferation” below) [1] of the same compound?
Answer: remarkably inhibited proliferation

Question: And the “effect on proliferation” value (Control (HEK293) cells)?
Answer: did not affect the proliferation

Question: What about the “effect on proliferation” value [2] of the same compound?
Answer: remarkably inhibited proliferation
